Experimental data as given in patent publication US20060068007A1, “Class of surfactant-like materials” (Boehringer Ingelheim Pharmaceuticals, Inc., priority 2004, published 2006).

Test: Solubility of the active agent depending on pH
Type: physicochemical
Conditions: basic conditions
Procedure: The tablets were prepared similarly as described in Example 3.

solubility: higher solubility in basic conditions
SMILES: COc1ccc2c(O[C@@H]3C[C@H]4C(=O)N[C@]5(C(=O)O)CC5/C=C\CCCCC[C@H](NC(=O)OC5CCCC5)C(=O)N4C3)cc(-c3csc(NC(C)C)n3)nc2c1 (stereo partly drawn) [(Z)-(1S,4R,14S,18R)-14-Cyclopentyloxycarbonylamino-18-[2-(2-isopropylamino-thiazol-4-yl)-7-methoxy-quinolin-4-yloxy]-2,15-dioxo-3,16-diaza-tricyclo[14.3.0.0^4,6]nonadec-7-ene-4-carboxylic acid]
